The results in this text go back to ChEMBL document CHEMBL4257451, “Synergism of fused bicyclic 2-aminothiazolyl compounds with polymyxin B against Klebsiella pneumoniae” (Medchemcomm, 2017).

For data set [1], the system named is Klebsiella pneumoniae. Nature of the data set: Synergistic antibacterial activity against Klebsiella pneumoniae SIPI-KPN-1712 assessed as fractional Inhibitory concentration index in presence of polymixin B at 2 ug/ml by broth microdilution method. Type of data set: functional. On the technique in general: In broth dilution the organism is exposed to a series of concentrations in liquid medium.

Data set [2] has as its system Klebsiella pneumoniae. Nature of the data set: Growth inhibition of Klebsiella pneumoniae SIPI-KPN-1712 by broth microdilution method. Type of data set: organism-based. To be noted: in vitro.
Data set [3] concerns Klebsiella pneumoniae. Put plainly: Synergistic antibacterial activity against Klebsiella pneumoniae SIPI-KPN-1712 assessed as polymixin B MIC at 4 ug/ml by broth microdilution method (reference value: 32 ug/ml). Type of data set: functional.

On to `COC1CCCc2nc(Nc3ccc(C(C)=O)cc3)sc21` (stereo not drawn), for which the “fractional inhibitory concentration index (FICI)” value in the data set with Klebsiella pneumoniae [1] amounted to 0.53. Besides, the MIC in the data set with Klebsiella pneumoniae [2] was more than 128 µg/mL; in the data set with Klebsiella pneumoniae [3] it was 16 µg/mL.

Regarding `CCOC1CCCc2nc(Nc3ccc(Br)cc3)sc21` (stereo not drawn), in the data set with Klebsiella pneumoniae [1], the “fractional inhibitory concentration index (FICI)” value worked out at 0.09. Further, the MIC against Klebsiella pneumoniae [2] is more than 128 µg/mL; in the data set with Klebsiella pneumoniae [3] it was 2 µg/mL.

With `COC1CCCc2nc(Nc3ccc(C(F)(F)F)cc3Cl)sc21` (stereo not drawn), in the data set on Klebsiella pneumoniae [1], the “fractional inhibitory concentration index (FICI)” value was 0.16. Moreover, the MIC with Klebsiella pneumoniae [2] was more than 128 µg/mL; with Klebsiella pneumoniae [3], 4 µg/mL.

In the case of `COC1CCCc2nc(Nc3ccc(C)cc3)sc21` (stereo not drawn), the “fractional inhibitory concentration index (FICI)” value in the data set with Klebsiella pneumoniae [1] was 0.53. For the same compound, the MIC is more than 128 µg/mL against Klebsiella pneumoniae [2] and 16 µg/mL in the data set with Klebsiella pneumoniae [3].

With `CCc1ccc(Nc2nc3c(s2)C(OC)CCC3)cc1` (stereo not drawn), the “fractional inhibitory concentration index (FICI)” value in the data set on Klebsiella pneumoniae [1] was 1.03. Also, the MIC in the data set with Klebsiella pneumoniae [2] is more than 128 µg/mL; with Klebsiella pneumoniae [3], 32 µg/mL.

For the compound `COC1CCCc2nc(NN3CCOCC3)sc21` (stereo not drawn), in the data set with Klebsiella pneumoniae [1], the “fractional inhibitory concentration index (FICI)” value was determined as 0.53. Further, the MIC in the data set with Klebsiella pneumoniae [2] was more than 128 µg/mL; with Klebsiella pneumoniae [3] it was 16 µg/mL.

Regarding `COC1CCCc2nc(Nc3cccc(C(F)(F)F)c3)sc21` (stereo not drawn), the “fractional inhibitory concentration index (FICI)” value in the data set on Klebsiella pneumoniae [1] is on record as 0.53. The figures for the MIC in the data set with Klebsiella pneumoniae [2] and in the data set with Klebsiella pneumoniae [3] were more than 128 µg/mL and 16 µg/mL, respectively.

For `O=C(OC1CCCc2nc(Nc3ccc(Cl)cn3)sc21)n1ccnc1` (stereo not drawn), the “fractional inhibitory concentration index (FICI)” value with Klebsiella pneumoniae [1] came to 0.53. Also, the results for the MIC with Klebsiella pneumoniae [2] and in the data set with Klebsiella pneumoniae [3] were more than 128 µg/mL and 16 µg/mL, respectively.

With `OC1CCCc2nc(Nc3ccc(Cl)cn3)sc21` (stereo not drawn), in the data set with Klebsiella pneumoniae [1], the “fractional inhibitory concentration index (FICI)” value worked out at 0.53. Moreover, the MIC with Klebsiella pneumoniae [2] was more than 128 µg/mL; with Klebsiella pneumoniae [3], 16 µg/mL.

For the compound `CCOC1CCCc2nc(Nc3ccc(Oc4ccccc4C)cc3)sc21` (stereo not drawn), in the data set with Klebsiella pneumoniae [1], the “fractional inhibitory concentration index (FICI)” value is given as 1.03. The MIC with Klebsiella pneumoniae [2] was more than 128 µg/mL; in the data set on Klebsiella pneumoniae [3] it was 32 µg/mL.

As for `COCCOC1CCCc2nc(Nc3ccc(C)cc3)sc21` (stereo not drawn), in the data set with Klebsiella pneumoniae [1], the “fractional inhibitory concentration index (FICI)” value was determined as 1.03. In addition, the figures for the MIC against Klebsiella pneumoniae [2] and in the data set with Klebsiella pneumoniae [3] were more than 128 µg/mL and 32 µg/mL, respectively.

Take `O=C(OC1CCCc2nc(Nc3ccc(Cl)cc3)sc21)n1ccnc1` (stereo not drawn): the “fractional inhibitory concentration index (FICI)” value in the data set with Klebsiella pneumoniae [1] is recorded as 1.03. Also, the values for the MIC with Klebsiella pneumoniae [2] and in the data set on Klebsiella pneumoniae [3] were more than 128 µg/mL and 32 µg/mL, respectively.

Take `COC1CCCc2nc(Nc3cccc(Br)c3)sc21` (stereo not drawn): in the data set with Klebsiella pneumoniae [1], the “fractional inhibitory concentration index (FICI)” value is reported as 0.53. Moreover, the MIC in the data set on Klebsiella pneumoniae [2] is more than 128 µg/mL; with Klebsiella pneumoniae [3], 16 µg/mL.

With `COC1CCCc2nc(Nc3ccccc3C)sc21` (stereo not drawn), the “fractional inhibitory concentration index (FICI)” value in the data set on Klebsiella pneumoniae [1] came out at 1.03. In addition, the MIC with Klebsiella pneumoniae [2] was more than 128 µg/mL; in the data set with Klebsiella pneumoniae [3] it was 32 µg/mL.

On to `Cc1ccc(Nc2nc3c(s2)C(O)CCC3)cc1` (stereo not drawn), for which, in the data set on Klebsiella pneumoniae [1], the “fractional inhibitory concentration index (FICI)” value was found to be 1.03. In addition, the MIC against Klebsiella pneumoniae [2] is more than 128 µg/mL; in the data set with Klebsiella pneumoniae [3] it was 32 µg/mL.

For the compound `O=C(OC1CCCc2nc(Nc3ccc(C(F)(F)F)cc3)sc21)n1ccnc1` (stereo not drawn), the “fractional inhibitory concentration index (FICI)” value in the data set on Klebsiella pneumoniae [1] was 0.53. Moreover, the MIC against Klebsiella pneumoniae [2] is more than 128 µg/mL; in the data set with Klebsiella pneumoniae [3], 16 µg/mL.

As to `FC(F)(F)c1ccc2nc(Nc3ccccc3)sc2c1`, the “fractional inhibitory concentration index (FICI)” value with Klebsiella pneumoniae [1] came out at 0.53. Moreover, the MIC against Klebsiella pneumoniae [2] is more than 128 µg/mL; with Klebsiella pneumoniae [3] it was 16 µg/mL.

As for `COC1CCCc2nc(Nc3ccccc3Cl)sc21` (stereo not drawn), the “fractional inhibitory concentration index (FICI)” value in the data set with Klebsiella pneumoniae [1] is recorded as 1.03. For the same compound, the MIC in the data set on Klebsiella pneumoniae [2] was more than 128 µg/mL; with Klebsiella pneumoniae [3], 32 µg/mL.

For `OC1CCCc2nc(Nc3ccc(F)cc3)sc21` (stereo not drawn), the “fractional inhibitory concentration index (FICI)” value in the data set on Klebsiella pneumoniae [1] is listed as 1.03. In addition, the MIC against Klebsiella pneumoniae [2] is more than 128 µg/mL; in the data set with Klebsiella pneumoniae [3], 32 µg/mL.

With `COC1CCCc2nc(Nc3ccc(Oc4ccc(F)cc4)cc3)sc21` (stereo not drawn), the “fractional inhibitory concentration index (FICI)” value in the data set with Klebsiella pneumoniae [1] was found to be 1.03. Also, the MIC is more than 128 µg/mL against Klebsiella pneumoniae [2] and 32 µg/mL in the data set with Klebsiella pneumoniae [3].

For the compound `COC1CCCc2nc(Nc3ccc(C(C)(C)C)cc3)sc21` (stereo not drawn), the “fractional inhibitory concentration index (FICI)” value in the data set with Klebsiella pneumoniae [1] amounted to 0.53. Moreover, the MIC in the data set with Klebsiella pneumoniae [2] is more than 128 µg/mL; in the data set on Klebsiella pneumoniae [3] it was 16 µg/mL.
